Assays:
Type in all cases: cell-based, human
HK2 cells = test: Transepithelial electrical resistance (TER); conditions: HK2 cells on transwell inserts
Protocol: Primary hPTECs were cultured in low (5 mM) glucose±TGFβ1 (10 ng/mL)±danegaptide (100 nM) for 48 h. Expression of E-cadherin (ECAD), N-cadherin (NCAD) and vimentin (panel A), and Claudin-2 and Zonula Occludens (ZO-1) and b-catenin (panel B) were assessed via western blotting. TGFβ1 reduced E-cadherin, Claudin-2 and ZO-1 expression and increased N-cadherin and vimentin expression (**P<0.01, ***P<0.001; mean±SEM, n=3). Effects were partially or completely reversed by danegaptide (100 nM; ▴P<0.05 and ▴▴▴P<0.001; mean±SEM, n=3). Representative blots for each protein are shown, with expression normalised by re-probing for α-tubulin as a loading control. In panel C, transepithelial electrical resistance (TER) assessed the consequence of altered adherens & tight-junction protein expression on epithelial integrity. HK2 cells were cultured in low (5 mM) glucose on transwell inserts and transepithelial resistance measured.
To determine if danegaptide can negate TGFβ1-mediated changes in adherens and tight junction proteins, hPTECs were incubated with TGFβ1 (10 ng/mL)±danegaptide (100 nM) for 48 h and expression of candidate proteins assessed by Western blotting. […] Bands were visualised using an OdysseyFC and semi-quantified using ImageStudio (v5.2, LI-COR). […]

primary hPTECs [1] = test: Western blotting of extracellular matrix proteins; conditions: 48 h
Protocol: Primary hPTECs were cultured in low (5 mM) glucose±TGFβ1 (10 ng/mL)±danegaptide (100 nM) for 48 h. In panel A, expression of the ECM proteins collagen I (Col1), collagen IV (Col4), fibronectin (Fibro), and Laminin (panel B) were assessed via western blotting. […] Danegaptide partially reversed the TGFβ1 evoked change in Integrin Linked Kinase 1 (ILK1; ▴▴▴P<0.001) but had negligible effect on Matrix Metalloproteinase 3 (MMP3). All bars correspond mean±SEM, (n=3) and representative blots are shown with expression normalised by re-probing for α-tubulin as a loading control.
To determine if danegaptide can negate TGFβ1-mediated changes in adherens and tight junction proteins, hPTECs were incubated with TGFβ1 (10 ng/mL)±danegaptide (100 nM) for 48 h and expression of candidate proteins assessed by Western blotting. Preparation of cytosolic protein from HK2 and HPTEC cells, their separation by SDS-gel electrophoresis and transfer onto Immobilon-FI PVDF membranes have been described previously (Price, G. W.; Chadjichristos, C. E.; Kavvadas, P.; Tang, S. C. W.; Yiu, W. H.; Green, C. R.; Potter, J. A.; Siamantouras, E.; Squires, P. E.; Hills, C. E. Blocking Connexin-43 mediated hemichannel activity protects against early tubular injury in experimental chronic kidney disease. Cell Commun. Signal. 2020, 18). Membranes were blocked using Odyssey blocking buffer (LI-COR), then probed overnight with antibodies against E-cadherin (1:1000), N-cadherin (1:1000), claudin-2 (1:500) and ZO-1 (1:1000), Col I (1:1000), Col IV (1:2000), Fibronectin (1:4000), Laminin (1:500), ILK1 (1:500), beta-catenin (1:2000), Vimentin (1:500), MMP3 (1:500). Bands were visualised using an OdysseyFC and semi-quantified using ImageStudio (v5.2, LI-COR). Additionally, transepithelial electrical resistance (TER) was measured as a functional measure of epithelial cell-cell coupling and paracellular permeability.
To examine the effect of danegaptide on TGFβ1-evoked changes in expression of ECM proteins, hPTEC cells were cultured in low (5 mM) glucose for 48 h, serum starved overnight and treated with TGFβ1 (10 ng/mL)±danegaptide (100 nM) for 48 h. Expression of the ECM proteins collagen I, collagen IV, fibronectin, Laminin, Integrin Linked Kinase 1, and Matrix Metalloproteinase 3 were assessed via western blotting.

primary hPTECs [2] = test: Inflammation antibody array, cell lysates (Table 1); conditions: hPTEC lysate, 48 h
Text: An inflammation antibody array was used to assess regulation of 31 candidate inflammatory proteins in cell lysates from hPTEC cells treated with TGFβ1±danegaptide. Results are representative of 3 separate experiments and presented as mean±SEM, n=3 with key significances indicated (*P<0.05, **P<0.01, ***P<0.001; one-way ANOVA and Tukey's post-test).
A proteome profiler array (Human Cytokine Array Kit from R&D Systems, Oxfordshire, UK) was used, to determine if danegaptide negates TGFβ1-induced changes in expression and secretion of key pro-inflammatory mediators. Primary hPTECs were cultured as described above and treated with TGFβ1 (10 ng/mL)±danegaptide (100 nM) for 48 h.

[3] = TGFβ1 10 ng/mL + danegaptide 100 nM

## NCC(=O)N1C[C@H](NC(=O)c2ccccc2)C[C@H]1C(=O)O [danegaptide, (2S,4R)-1-(2-aminoacetyl)-4-benzamidopyrrolidine2-carboxylic acid]
HK2 cells; [3]
  transepithelial resistance: 36±2.08 Ω·cm2
Primary hPTECs [1]; [3]
  Integrin Linked Kinase 1 (ILK1) expression, compared to control: 251.8±33%
  Matrix Metalloproteinase 3 (MMP3) expression, compared to control: 147.1±12.2%
  collagen I expression, compared to control: 180.7±27.3%
  collagen IV expression, compared to control: 164.2±6.9%
  fibronectin expression, compared to control: 161.3±4%
  laminin expression, compared to control: 149±20.4%
Primary hPTECs [2]; TGF-β1 10 ng/mL + DG 100 nM
  Angiogenin in lysate (% compared to control): 100 ± 20.3%
  Cystatin C in lysate (% compared to control): 123 ± 14.3%
  DPPIV in lysate (% compared to control): 187 ± 25.2%
  ENA 78 in lysate (% compared to control): 97 ± 18.2%
  Endoglin in lysate (% compared to control): 72.3 ± 8.9^ %
  FGF7 in lysate (% compared to control): 106 ± 15.2%
  Flt 3 Ligand in lysate (% compared to control): 208 ± 31.4%
  G-CSF in lysate (% compared to control): 126 ± 4.7%
  GM-CSF in lysate (% compared to control): 136 ± 11.6%
  HGF in lysate (% compared to control): 104.0 ± 9.0%
  ICAM 1 in lysate (% compared to control): 80 ± 28.7%
  IFNg in lysate (% compared to control): 112 ± 12.7%
  IGFBP2 in lysate (% compared to control): 334 ± 66.1%
  IGFBP3 in lysate (% compared to control): 97 ± 28.5%
  IL1A in lysate (% compared to control): 80 ± 18.8%
  IL3 in lysate (% compared to control): 129 ± 15.7%
  IL8 in lysate (% compared to control): 122 ± 5.2%
  IL12 p70 in lysate (% compared to control): 97 ± 4.6%
  IL13 in lysate (% compared to control): 150 ± 46.0%
  Kallikrein 3 in lysate (% compared to control): 67 ± 14.3%
  LIF in lysate (% compared to control): 225 ± 82^ %
  MCP-1 in lysate (% compared to control): 97.6 ± 13.9%
  MMP9 in lysate (% compared to control): 95 ± 10.6%
  PDGF-AA/BB in lysate (% compared to control): 95.2 ± 14.6%
  RAGE in lysate (% compared to control): 105 ± 9.2%
  RANTES in lysate (% compared to control): 104 ± 15.2%
  Serpin E1 in lysate (% compared to control): 148 ± 28.5%
  TFF3 in lysate (% compared to control): 132 ± 3.9%
  TNF-α in lysate (% compared to control): 144 ± 18.5%
  Thrombospondin-1 in lysate (% compared to control): 100 ± 19.8%
  VEGF in lysate (% compared to control): 101 ± 16.4%

## TGFβ1: Recombinant hTGFβ1 (Sigma); pro-fibrotic cytokine used to stimulate the cells [reference compound]
HK2 cells; TGFβ1 10 ng/mL alone
  transepithelial resistance: 10±1.53 Ω·cm2
Primary hPTECs [1]; TGFβ1 10 ng/mL alone
  Integrin Linked Kinase 1 (ILK1) expression, compared to control: 378.9±16.8%
  Matrix Metalloproteinase 3 (MMP3) expression, compared to control: 185.3±19.6%
  collagen I expression, compared to control: 334.6±30.14%
  collagen IV expression, compared to control: 354.5±16.9%
  fibronectin expression, compared to control: 301.7±50.4%
  laminin expression, compared to control: 324.8±36.4%
Primary hPTECs [2]; TGF-β1 10 ng/mL alone
  Angiogenin in lysate (% compared to control): 237 ± 36^ %
  Cystatin C in lysate (% compared to control): 182 ± 17.5%
  DPPIV in lysate (% compared to control): 315 ± 6.8%
  ENA 78 in lysate (% compared to control): 207 ± 21.6%
  Endoglin in lysate (% compared to control): 145 ± 24.9%
  FGF7 in lysate (% compared to control): 139 ± 5.6%
  Flt 3 Ligand in lysate (% compared to control): 212 ± 13.3%
  G-CSF in lysate (% compared to control): 201 ± 24.6%
  GM-CSF in lysate (% compared to control): 221 ± 11.1%
  HGF in lysate (% compared to control): 153 ± 17.0%
  ICAM 1 in lysate (% compared to control): 190 ± 13.6%
  IFNg in lysate (% compared to control): 206 ± 15.4%
  IGFBP2 in lysate (% compared to control): 519 ± 99.4%
  IGFBP3 in lysate (% compared to control): 394 ± 94.5%
  IL1A in lysate (% compared to control): 127 ± 26.4%
  IL3 in lysate (% compared to control): 176 ± 3.4%
  IL8 in lysate (% compared to control): 236 ± 9.4%
  IL12 p70 in lysate (% compared to control): 177 ± 31.0%
  IL13 in lysate (% compared to control): 269 ± 3.9%
  Kallikrein 3 in lysate (% compared to control): 76 ± 12.0%
  LIF in lysate (% compared to control): 328 ± 70.4%
  MCP-1 in lysate (% compared to control): 134 ± 30.2%
  MMP9 in lysate (% compared to control): 24 ± 3.1%
  PDGF-AA/BB in lysate (% compared to control): 247 ± 53.4%
  RAGE in lysate (% compared to control): 109 ± 23.8%
  RANTES in lysate (% compared to control): 235 ± 13.5%
  Serpin E1 in lysate (% compared to control): 186 ± 40.2%
  TFF3 in lysate (% compared to control): 204 ± 25.8%
  TNF-α in lysate (% compared to control): 192 ± 14.7%
  Thrombospondin-1 in lysate (% compared to control): 128 ± 37.5%
  VEGF in lysate (% compared to control): 203 ± 25.9%

From patent publication US20240108598A1, “Danegaptide for Use in the Treatment or Prevention of a Kidney Disease” (CIANA THERAPEUTICS APS, priority 2021, published 2024)
